{
  "source": "patent US10076520B2",
  "about": "“Use of tyrosine kinase inhibitor in cancer treatment” (THE REGENTS OF THE UNIVERSITY OF COLORADO, A BODY CORPORATE, priority 2013, dated 2018)",
  "key": {"[1]": {"test_system": "PKCδ", "test": "Immunoblot of PKCδ tyrosine phosphorylation in ParC5 cells treated with hydrogen peroxide", "format": "cell-based, rat", "details": "ParC5 cells pre-treated 30 mins prior to hydrogen peroxide"}, "[2]": {"test_system": "ParC5 cells", "test": "Irradiation-induced apoptosis (caspase-3 activity) in ParC5 cells", "format": "cell-based, rat", "details": "parC5 cells pre-treated 30 mins prior to 10 Gy irradiation; harvested after 18 hrs; p<0.05", "experimental": "Cells were harvested after an additional 18 hrs and casapase 3 activity were measured."}},
  "data": [
    {"smiles": "Cc1ccc(NC(=O)c2ccc(CN3CCN(C)CC3)cc2)cc1Nc1nccc(-c2cccnc2)n1", "note": "[imatinib]", "values": [
      {"measurement": "phosphorylation of PKCδ at Y64, Y155 and Y311", "setting": "[1]", "value": "inhibited phosphorylation of PKCδ at Y155 only"},
      {"measurement": "apoptosis (caspase 3 activity)", "setting": "[2]", "value": "significant protection from apoptosis"}
    ]}
  ]
}
